The source of these data is PubChem BioAssay AID1259411 (Chemical Carcinogenesis Research Information System (CCRIS), 2018).

SMILES strings stand for the structures. The source made the active and inactive calls. How the calls were made is not given here.

The series concerns rodent carcinogenicity bioassays, tumor incidence. The experiment in a line: CCRIS carcinogenicity studies. In outline: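 NCI-built, expert-reviewed records of carcinogenicity and related test outcomes (mutagenicity, tumor promotion/inhibition) compiled from published and report sources, historical span 1985-2011, not updated.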

`CCOc1ccc(NC(C)=O)cc1N`: the carcinogen call is “inactive; negative” (Species: MOUSE, Strain/Sex: B6C3F1/FEMALE, Route: ORAL, Dose: 0, 0.4, 0.8% OF DIET, Dose: 0, 0.4, 0.8% OF DIET); “active; positive” (Species: MOUSE, Strain/Sex: B6C3F1/MALE, Route: ORAL, Dose: 0, 0.4, 0.8% OF DIET, Dose: 0, 0.4, 0.8% OF DIET, Tumor Site: Type of Lesion: THYROID GLAND: FOLLICULAR CELL ADENOMA, CARCINOMA, ADENOCARCINOMA, ADENOMA, LUNG: ALVEOLAR/BRONCHIOLAR ADENOMA, CARCINOM); “inactive; negative” (Species: RAT, Strain/Sex: F344/FEMALE, Route: ORAL, Dose: 0, 0.4, 1.5% OF DIET, Dose: 0, 0.4, 1.5% OF DIET); “inactive; negative” (Species: RAT, Strain/Sex: F344/MALE, Route: ORAL, Dose: 0, 0.4, 1.5% OF DIET, Dose: 0, 0.4, 1.5% OF DIET).
Take `O/N=c1\ccn(O)c2ccccc12`: the carcinogen call reads like this: (Species: MOUSE, Strain/Sex: DDD/FEMALE, Route: SUBCUTANEOUS, Dose: 53 NMOL IN 0.1 ML OLIVE OIL WITHIN 24 HR AFTER BIRTH (STUDY DURATION: 400 D), Tumor Site: Type of Lesion: LUNG: ADENOMA, INJECTION SITE: SARCOMA, HEMATOPOIETIC SYSTEM: LEUKEMIA OR LYMPHOSARCOMA, Tumor Site: Type of Lesion: LUNG: ADENOMA, INJECTION SITE: SARCOMA, HEMATOPOIETIC SYSTEM: LEUKEMIA OR LYMPHOSARCOMA) “active; positive”; (Species: RAT, Strain/Sex: BUFFALO/FEMALE, Route: GAVAGE, Dose: 1 MG/0.1 ML OR 2 MG/0.2 ML IN 60% ETHANOL SOLUTION 1/3 WK (TOTAL DOSE: 30 MG) (STUDY DURATION: 610 D), Tumor Site: Type of Lesion: GLANDULAR STOMACH: MUCOSAL CARCINOMA, MAMMARY GLAND: TUMOR, THYMUS GLAND: THYMOMA, Tumor Site: Type of Lesion: GLANDULAR STOMACH: MUCOSAL CARCINOMA, MAMMARY GLAND: TUMOR, THYMUS GLAND: THYMOMA) “active; positive”.
In the case of `C[C@@H]1O[C@@H](OC[C@H]2O[C@@H](Oc3c(-c4ccc(O)c(O)c4)oc4cc(OS(=O)(=O)O)cc(OS(=O)(=O)O)c4c3=O)[C@H](O)[C@@H](O)[C@@H]2O)[C@H](O)[C@H](O)[C@H]1O`, the carcinogen call is “inactive; negative” (Species: RAT, Strain/Sex: SPRAGUE-DAWLEY/FEMALE, Route: GAVAGE, Dose: 0, 10, 27, 71, 188, 500 MG/KG 3/WK FOR 2 YR (STUDY DURATION: 2 YR), Dose: 0, 10, 27, 71, 188, 500 MG/KG 3/WK FOR 2 YR (STUDY DURATION: 2 YR)) and “inactive; negative” (Species: RAT, Strain/Sex: SPRAGUE-DAWLEY/MALE, Route: GAVAGE, Dose: 0, 10, 27, 71, 188, 500 MG/KG 3/WK FOR 2 YR (STUDY DURATION: 2 YR), Dose: 0, 10, 27, 71, 188, 500 MG/KG 3/WK FOR 2 YR (STUDY DURATION: 2 YR)).
In the case of `CCN(Cc1cccc(S(=O)(=O)O)c1)c1ccc(C(=C2C=CC(=[N+](CC)Cc3cccc(S(=O)(=O)O)c3)C=C2)c2ccccc2S(=O)(=O)[O-])cc1`, the carcinogen call (Species: MOUSE, Strain/Sex: CD-1/FEMALE, Route: ORAL, Dose: 0, 0.5, 1.5, 5% IN DIET FOR 104 WK (STUDY DURATION: LIFETIME), Dose: 0, 0.5, 1.5, 5% IN DIET FOR 104 WK (STUDY DURATION: LIFETIME)) was “inactive; negative”; the carcinogen call (Species: MOUSE, Strain/Sex: CD-1/MALE, Route: ORAL, Dose: 0, 0.5, 1.5, 5% IN DIET FOR 104 WK (STUDY DURATION: LIFETIME), Dose: 0, 0.5, 1.5, 5% IN DIET FOR 104 WK (STUDY DURATION: LIFETIME)) was “inactive; negative”; the carcinogen call (Species: MOUSE, Strain/Sex: ICR/FEMALE, Route: DERMAL, Dose: 0, 1 MG IN 0.1 ML DISTILLED WATER 2/WK FOR A MEAN TOTAL DOSE OF 128.8 MG (STUDY DURATION: 18 MO)) is “inactive; negative”; the carcinogen call (Species: MOUSE, Strain/Sex: ICR/MALE, Route: DERMAL, Dose: 0, 1 MG IN 0.1 ML DISTILLED WATER 2/WK FOR A MEAN TOTAL DOSE OF 128.8 MG (STUDY DURATION: 18 MO)) was “inactive; negative”; the carcinogen call (Species: RAT, Route: SUBCUTANEOUS, Tumor Site: Type of Lesion: INJECTION SITE) was “active; positive”; the carcinogen call (Species: RAT, Strain/Sex: STRAIN-CD/FEMALE, Route: ORAL, Dose: 0, 0.1, 1, 2% IN DIET FOR 111 WK (PARENTS FED 0; 0.1; 1; 2% RESPECTIVELY IN DIET) (STUDY DURATION: LIFETIME), Dose: 0, 0.1, 1, 2% IN DIET FOR 111 WK (PARENTS FED 0; 0.1; 1; 2% RESPECTIVELY IN DIET) (STUDY DURATION: LIFETIME)) was “inactive; negative”. Moreover, for the setting “Species: RAT, Strain/Sex: STRAIN-CD/MALE, Route: ORAL, Dose: 0, 0.1, 1, 2% IN DIET FOR 116 WK (PARENTS FED 0; 0.1; 1; 2% RESPECTIVELY IN DIET) (STUDY DURATION: LIFETIME), Dose: 0, 0.1, 1, 2% IN DIET FOR 116 WK (PARENTS FED 0; 0.1; 1; 2% RESPECTIVELY IN DIET) (STUDY DURATION: LIFETIME)”, the carcinogen call is “inactive; negative”.
Turning to `COc1cc2c(c3oc(=O)c4c(c13)CCOC4=O)[C@@H]1C=CO[C@@H]1O2`, the carcinogen call (Species: HUMAN, Route: ORAL, Tumor Site: Type of Lesion: LIVER) was “active; positive” and the carcinogen call (Species: RAT, Route: ORAL, Tumor Site: Type of Lesion: KIDNEY) is “active; positive”.
`CCC1(c2ccccc2)C(=O)NC(=O)NC1=O`: the carcinogen call (Species: MOUSE, Strain/Sex: 6HF1/MALE, Route: ORAL, Dose: 0, 0.05% IN BASAL DIET FOR 104 WK (STUDY DURATION: 104 WK), Tumor Site: Type of Lesion: LIVER: TUMOR) was “active; positive”.
With `CCCCCCCCCCCCCC(=O)ON(C(C)=O)c1ccc2c(c1)Cc1cc(I)ccc1-2`, under “Species: RAT, Strain/Sex: F344/MALE, Route: SUBCUTANEOUS, Dose: 10.6 UMOL IN 0.2 ML DMSO-TRIOCTANOIN 1/WK FOR 6 WK, Tumor Site: Type of Lesion: INJECTION SITE: FIBROSARCOMA OR FIBROMYOSARCOMA OR FIBROLIPOSARCOMA”, the carcinogen call is “active; positive”.
Turning to `CCC1(c2ccccc2)C(=O)NCNC1=O`, the carcinogen call was “active; positive” (Species: MOUSE, Strain/Sex: B6C3F1/FEMALE, Route: ORAL, Dose: 0, 300, 600, 1300 PPM IN DIET FOR 104 WK (STUDY DURATION: 104 WK), Dose: 0, 300, 600, 1300 PPM IN DIET FOR 104 WK (STUDY DURATION: 104 WK), Tumor Site: Type of Lesion: LIVER: HEPATOCELLULAR ADENOMA, HEPATOCELLULAR CARCINOMA, OR HEPATOBLASTOMA); “active; positive” (Species: MOUSE, Strain/Sex: B6C3F1/MALE, Route: ORAL, Dose: 0, 300, 600, 1300 PPM IN DIET FOR 104 WK (STUDY DURATION: 104 WK), Dose: 0, 300, 600, 1300 PPM IN DIET FOR 104 WK (STUDY DURATION: 104 WK), Tumor Site: Type of Lesion: LIVER: HEPATOCELLULAR ADENOMA, HEPATOCELLULAR CARCINOMA, OR HEPATOBLASTOMA, THYROID GLAND: FOLLICULAR CELL ADENOMA); “inactive; negative” (Species: RAT, Strain/Sex: F344/FEMALE, Route: ORAL, Dose: 0, 600, 1300, 2500 PPM IN DIET FOR 104 WK (STUDY DURATION: 104 WK), Dose: 0, 600, 1300, 2500 PPM IN DIET FOR 104 WK (STUDY DURATION: 104 WK)); “equivocal” (Species: RAT, Strain/Sex: F344/MALE, Route: ORAL, Dose: 0, 600, 1300, 2500 PPM IN DIET FOR 104 WK (STUDY DURATION: 104 WK), Dose: 0, 600, 1300, 2500 PPM IN DIET FOR 104 WK (STUDY DURATION: 104 WK), Tumor Site: Type of Lesion: THYROID GLAND: FOLLICULAR CELL ADENOMA, FOLLICULAR CELL ADENOMA OR CARCINOMA, KIDNEY: RENAL TUBULE ADENOMA OR CARCINOMA).
`Cc1cc(Cc2ccc(N)c(C)c2)ccc1N`: the carcinogen call (Species: RAT, Route: ORAL, Tumor Site: Type of Lesion: LIVER) is “active; positive”.
